From patent US20110183991A1, “5HT7 RECEPTOR LIGANDS AND COMPOSITIONS COMPRISING THE SAME” (LABORATORIOS DEL DR. ESTEVE, S.A., priority 2008, published 2011)
Like-named read-outs stand apart in the source and are kept apart here. Each block holds one molecule with its values, some of them ahead of it.

Molecular target: T1, Cloned Human Serotonin Receptor, Subtype 7 (h5HT7), expressed in CHO cells (Homo sapiens, UniProt P34969)
T1 construct: purchased PerkinElmer 6120512; host or cells: CHO cells
Experiment: Radioligand binding assay, [125I]LSD, cloned human 5HT7 receptor on Flashplate
Conditions: for inhibition at 1 µM: read-out: %-Inhib. (10^−6 M)
Procedure: The protocol assay was essentially the recommended protocol in the Technical Data Sheet by PerkinEmer Life and Analytical Sciences. The Mass membrane protein/well was typically 12 μg and the Receptor/well was about 9-10 fmoles. The Flashplate were let equilibrate at room temperature for one hour before the addition of the components of the assay mixture. The binding buffer was: 50 mM Tris-HCl, pH 7.4, containing 10 mM MgCl2, 0.5 mM EDTA and 0.5% BSA. […] Nonspecific binding was determined with 50 μM of Clozapine. The assay volume was 25 μl. TopSeal-A were applied onto Flashplate microplates and they were incubated at room temperature for 240 minutes in darkness.

[1] = compound at 10^−6 M, radioligand [125I]LSD 0.82 nM
[2] = 5HT7 binding experiments on the screening selection

T1 sequence (P34969 whole entry): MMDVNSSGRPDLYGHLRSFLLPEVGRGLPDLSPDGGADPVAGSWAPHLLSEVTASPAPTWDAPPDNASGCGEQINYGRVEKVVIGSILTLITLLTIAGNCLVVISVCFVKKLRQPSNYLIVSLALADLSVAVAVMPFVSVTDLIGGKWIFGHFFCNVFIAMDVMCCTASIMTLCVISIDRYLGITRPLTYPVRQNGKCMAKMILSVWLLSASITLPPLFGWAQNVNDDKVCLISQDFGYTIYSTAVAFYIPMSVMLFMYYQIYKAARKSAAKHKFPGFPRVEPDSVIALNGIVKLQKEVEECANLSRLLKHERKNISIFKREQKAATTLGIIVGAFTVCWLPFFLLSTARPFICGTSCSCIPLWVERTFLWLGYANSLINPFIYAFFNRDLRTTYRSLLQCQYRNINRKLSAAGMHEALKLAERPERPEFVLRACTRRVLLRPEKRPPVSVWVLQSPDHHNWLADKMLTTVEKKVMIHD

inhibition at 1 µM [1]: 22.3%
Structure (SMILES): Cn1cc(CN2CCN(c3ccccc3)CC2)c2ccccc21 [Ex 1, 1-methyl-3-((4-phenylpiperazin-1-yl)methyl)-1H-indole]

inhibition at 1 µM [1]: 53.7%
IC50 (radioligand [125I]LSD 0.82 nM): 1940 nM
Structure (SMILES): c1ccc(OCCN2CCN(c3cccc4[nH]ccc34)CC2)cc1 [Ex 3, 4-(4-(2-phenoxyethyl)piperazin-1-yl)-1H-indole]

inhibition at 1 µM [1]: 14.3%
Structure (SMILES): Cc1cc(NC(=O)CN2CCN(c3cccc4[nH]ccc34)CC2)n(C)n1 [Ex 5, 2-(4-(1H-indol-4-yl)piperazin-1-yl)-N-(1,3-dimethyl-1H-pyrazol-5-yl)acetamide]

inhibition at 1 µM [1]: 16.6%
Structure (SMILES): Cc1ccc(N2CCN(Cc3ccc(Cl)nc3)CC2)c(C)c1 [Ex 10, 1-((6-chloropyridin-3-yl)methyl)-4-(2,4-dimethylphenyl)piperazine]

inhibition at 1 µM [1]: 19.5%
Structure (SMILES): FC(F)(F)c1cccc(N2CCN(Cc3cccnc3Nc3ccccc3)CC2)c1 [Ex 14, N-phenyl-3-((4-(3-(trifluoromethyl)phenyl)piperazin-1-yl)methyl)pyridin-2-amine]

inhibition at 1 µM [1]: 8.8%
Structure (SMILES): COc1ccc(CN2CCN(c3ccc(C)cc3C)CC2)c(OC)n1 [Ex 16, 1-((2,6-dimethoxypyridin-3-yl)methyl)-4-(2,4-dimethylphenyl)piperazine]

inhibition at 1 µM [1]: 59.5%
IC50 (radioligand [125I]LSD 0.82 nM): 1140 nM
Structure (SMILES): c1cc(N2CCN(Cc3ccc(OC4CCCCO4)cc3)CC2)c2cc[nH]c2c1 (stereo not shown) [Ex 19, 4-(4-(4-(tetrahydro-2H-pyran-2-yloxy)benzyl)piperazin-1-yl)-1H-indole]

inhibition at 1 µM [1]: 51.9%
IC50 (radioligand [125I]LSD 0.82 nM): 423 nM
Structure (SMILES): Cc1cccc(-n2c(=O)c(CN3CCN(c4cccc5[nH]ccc45)CC3)cc3cccnc32)c1 [Ex 20, 3-((4-(1H-indol-4-yl)piperazin-1-yl)methyl)-1-m-tolyl-1,8-naphthyridin-2(1H)-one]

inhibition at 1 µM [1]: 114%
IC50 (radioligand [125I]LSD 0.82 nM): 109 nM
Structure (SMILES): COc1ccc(CN2CCN(c3cccc4[nH]ccc34)CC2)c(OC)n1 [Ex 22, 4-(4-((2,6-dimethoxypyridin-3-yl)methyl)piperazin-1-yl)-1H-indole]

inhibition at 1 µM [1]: -4.6%
Structure (SMILES): O=[N+]([O-])c1ccc(N2CCN(Cc3cccnc3Nc3ccccc3)CC2)cc1 [Ex 26, 3-((4-(4-nitrophenyl)piperazin-1-yl)methyl)-N-phenylpyridin-2-amine]

inhibition at 1 µM [1]: 28.8%
Structure (SMILES): c1ccc2[nH]c(CN3CCN(c4cccc5[nH]ccc45)CC3)nc2c1 [Ex 28, 2-((4-(1H-indol-4-yl)piperazin-1-yl)methyl)-1H-benzo[d]imidazole]

inhibition at 1 µM [1]: 83.1%
IC50 (radioligand [125I]LSD 0.82 nM): 339 nM
Structure (SMILES): c1ccc(CN2CCN(c3cccc4[nH]ccc34)CC2)cc1 [Ex 30, 4-(4-benzylpiperazin-1-yl)-1H-indole]

inhibition at 1 µM [1]: 51.3%
Structure (SMILES): Clc1ccc(CN2CCN(c3cccc4[nH]ccc34)CC2)c(Cl)c1 [Ex 35, 4-(4-(2,4-dichlorobenzyl)piperazin-1-yl)-1H-indole]

inhibition at 1 µM [1]: 41.5%
Structure (SMILES): O=[N+]([O-])c1cccc(CN2CCN(c3cccc4[nH]ccc34)CC2)c1 [Ex 36, 4-(4-(3-nitrobenzyl)piperazin-1-yl)-1H-indole]

affinity for the 5HT7 receptor (in words) [2]: good affinity
Structure (SMILES): CC(C)Oc1ccccc1N1CCN(Cc2ccc(Cl)nc2)CC1 [b, 1-((6-chloropyridin-3-yl)methyl)-4-(2-isopropoxyphenyl)piperazine]

affinity for the 5HT7 receptor (in words) [2]: good affinity
Structure (SMILES): COc1ccccc1N1CCN(CCC(O)c2ccccc2)CC1 (stereo not shown) [d, 3-(4-(2-methoxyphenyl)piperazin-1-yl)-1-phenylpropan-1-ol]

Continued, molecule first:

Structure (SMILES): Oc1cccc(N2CCN(Cc3ccc(OC(F)(F)F)cc3)CC2)c1 [Ex 2, 3-(4-(4-(trifluoromethoxy)benzyl)piperazin-1-yl)phenol]
inhibition at 1 µM [1]: 15.1%

Structure (SMILES): Fc1cc2c(c(CN3CCN(C4CCc5ccccc5C4)CC3)c1)OCOC2 (stereo not shown) [Ex 4, 1-((6-fluoro-4H-benzo[d][1,3]dioxin-8-yl)methyl)-4-(1,2,3,4-tetrahydronaphthalen-2-yl)piperazine]
inhibition at 1 µM [1]: 49%
IC50 (radioligand [125I]LSD 0.82 nM): 2330 nM

Structure (SMILES): CC[C@H](C)C(=O)N1CCN(Cc2cc(C(C)C)ccc2OC)CC1 [Ex 6, (S)-1-(4-(5-isopropyl-2-methoxybenzyl)piperazin-1-yl)-2-methylbutan-1-one]
inhibition at 1 µM [1]: 15%

Structure (SMILES): N#CCCCN1CCN(c2cccc3[nH]ccc23)CC1 [Ex 7, 4-(4-(1H-indol-4-yl)piperazin-1-yl)butanenitrile]
IC50 (radioligand [125I]LSD 0.82 nM): 713 nM
inhibition at 1 µM: 49.6%

Structure (SMILES): COc1ccc(C(C)C)cc1CN1CCN(C(=O)c2ccsc2)CC1 [Ex 8, (4-(5-isopropyl-2-methoxybenzyl)piperazin-1-yl)(thiophen-3-yl)methanone]
inhibition at 1 µM [1]: 30.5%

Structure (SMILES): COc1ccc(C(C)C)cc1CN1CCN(C(=O)c2ccc(Br)cc2)CC1 [Ex 9, (4-bromophenyl)(4-(5-isopropyl-2-methoxybenzyl)piperazin-1-yl)methanone]
inhibition at 1 µM [1]: 68.1%
IC50 (radioligand [125I]LSD 0.82 nM): 1790 nM

Structure (SMILES): COc1ccc(C(C)C)cc1CN1CCN(C(=O)Cc2c[nH]c3ccccc23)CC1 [Ex 11, 2-(1H-indol-3-yl)-1-(4-(5-isopropyl-2-methoxybenzyl)piperazin-1-yl)ethanone]
inhibition at 1 µM: 16.3%

Structure (SMILES): COc1ccc(CN2CCN(c3ccc(OC)c(OC)c3)CC2)c(OC)n1 [Ex 12, 1-(3,4-dimethoxyphenyl)-4-((2,6-dimethoxypyridin-3-yl)methyl)piperazine]
inhibition at 1 µM [1]: -0.3%

Structure (SMILES): Cc1ccc(N2CCN(Cc3ccc(OC4CCCCO4)cc3)CC2)c(C)c1 (stereo not shown) [Ex 13, 1-(2,4-dimethylphenyl)-4-(4-(tetrahydro-2H-pyran-2-yloxy)benzyl)piperazine]
inhibition at 1 µM [1]: 12.1%

Structure (SMILES): COc1ccc(CN2CCN(c3ccccc3OC(C)C)CC2)c(OC)n1 [Ex 15, 1-((2,6-dimethoxypyridin-3-yl)methyl)-4-(2-isopropoxyphenyl)piperazine]
IC50: 82.2 nM
inhibition at 1 µM: 92.2%

Structure (SMILES): Cn1cc(CN2CCN(c3cccc(C(F)(F)F)c3)CC2)c(=O)n(C)c1=O [Ex 17, 1,3-dimethyl-5-((4-(3-(trifluoromethyl)phenyl)piperazin-1-yl)methyl)pyrimidine-2,4(1H,3H)-dione]
inhibition at 1 µM [1]: 28.5%

Structure (SMILES): COc1ccc(CN2CCN(c3ccc(Cl)cc3)CC2)c(OC)n1 [Ex 18, 1-(4-chlorophenyl)-4-((2,6-dimethoxypyridin-3-yl)methyl)piperazine]
inhibition at 1 µM [1]: 12.3%

Structure (SMILES): COc1ccc(CN2CCN(c3cccc(C(F)(F)F)c3)CC2)c(OC)n1 [Ex 21, 1-((2,6-dimethoxypyridin-3-yl)methyl)-4-(3-(trifluoromethyl)phenyl)piperazine]
inhibition at 1 µM [1]: 9.4%

Structure (SMILES): COc1ccc(C(C)C)cc1CN1CCN(c2ccc(Cl)cc2)CC1 [Ex 23, 1-(4-chlorophenyl)-4-(5-isopropyl-2-methoxybenzyl)piperazine]
inhibition at 1 µM [1]: 35.9%

Structure (SMILES): COc1ccc(C(C)C)cc1CN1CCN(c2ccc(C)cc2C)CC1 [Ex 24, 1-(2,4-dimethylphenyl)-4-(5-isopropyl-2-methoxybenzyl)piperazine]
inhibition at 1 µM [1]: 41.6%

Structure (SMILES): Clc1ccc(CN2CCN(c3cccc4[nH]ccc34)CC2)cn1 [Ex 25, 4-(4-((6-chloropyridin-3-yl)methyl)piperazin-1-yl)-1H-indole]
IC50: 328 nM
inhibition at 1 µM: 66.8%

Structure (SMILES): COc1ccc(C(C)C)cc1CN1CCN(c2ncccn2)CC1 [Ex 27, 2-(4-(5-isopropyl-2-methoxybenzyl)piperazin-1-yl)pyrimidine]
inhibition at 1 µM [1]: 48.9%

Structure (SMILES): Fc1ccccc1CN1CCN(c2cccc3[nH]ccc23)CC1 [Ex 31, 4-(4-(2-fluorobenzyl)piperazin-1-yl)-1H-indole]
IC50 (radioligand [125I]LSD 0.82 nM): 460 nM
inhibition at 1 µM: 82.6%

Structure (SMILES): c1ccc2cc(CN3CCN(c4cccc5[nH]ccc45)CC3)ccc2c1 [Ex 32, 4-(4-(naphthalen-2-ylmethyl)piperazin-1-yl)-1H-indole]
IC50 (radioligand [125I]LSD 0.82 nM): 760 nM
inhibition at 1 µM: 78.3%

Structure (SMILES): Clc1ccccc1CN1CCN(c2cccc3[nH]ccc23)CC1 [Ex 33, 4-(4-(2-chlorobenzyl)piperazin-1-yl)-1H-indole]
IC50 (radioligand [125I]LSD 0.82 nM): 223 nM
inhibition at 1 µM: 78.2%

Structure (SMILES): Clc1ccc(CN2CCN(c3cccc4[nH]ccc34)CC2)cc1Cl [Ex 34, 4-(4-(3,4-dichlorobenzyl)piperazin-1-yl)-1H-indole]
IC50 (radioligand [125I]LSD 0.82 nM): 1240 nM
inhibition at 1 µM: 54.7%

Structure (SMILES): CCOc1ccccc1N1CCN(Cc2c[nH]c3ccccc23)CC1 [c, 3-((4-(2-ethoxyphenyl)piperazin-1-yl)methyl)-1H-indole]
affinity for the 5HT7 receptor (in words): good affinity

Structure (SMILES): CN(C)S(=O)(=O)c1ccc2[nH]cc(CCN)c2c1 [compound a, 3-(2-aminoethyl)-N,N-dimethyl-1H-indole-5-sulfonamide]
affinity for the 5HT7 receptor (in words): good affinity

Structure (SMILES): O=c1[nH]c2ccccc2n1C1CCN(CCOc2ccccc2)CC1 [compound i, 1-(1-(2-phenoxyethyl)piperidin-4-yl)-1H-benzo[d]imidazol-2(3H)-one]
affinity for the 5HT7 receptor (in words) [2]: good affinity

Structure (SMILES): CC(C)Oc1ccccc1N1CCN(Cc2ccc(-n3ccnc3)cc2)CC1 [e, 1-(4-(1H-imidazol-1-yl)benzyl)-4-(2-isopropoxyphenyl)piperazine]
affinity for the 5HT7 receptor (in words): good affinity

Structure (SMILES): COc1ccccc1N1CCN(CCC(=O)Nc2ccc3c(c2)CCC3)CC1 [f, N-(2,3-dihydro-1H-inden-5-yl)-3-(4-(2-methoxyphenyl)piperazin-1-yl)propanamide]
affinity for the 5HT7 receptor (in words) [2]: good affinity

Structure (SMILES): O=c1[nH]c2ccccc2n1C1=CCN(CCCOc2ccccc2)CC1 [j, 1-(1-(3-phenoxypropyl)-1,2,3,6-tetrahydropyridin-4-yl)-1H-benzo[d]imidazol-2(3H)-one]
affinity for the 5HT7 receptor (in words): good affinity

Structure (SMILES): O=c1[nH]c2ccccc2n1C1=CCN(CCOc2ccccc2)CC1 [k, 1-(1-(2-phenoxyethyl)-1,2,3,6-tetrahydropyridin-4-yl)-1H-benzo[d]imidazol-2(3H)-one]
affinity for the 5HT7 receptor (in words) [2]: good affinity
